Assays:
Type in all cases: cell-based
[1] = target: ZBTB7A (Zinc Finger And BTB Domain Containing 7A) (Homo sapiens (Human), UniProt O95365+Q96SW2); assay: HUDEP-2 ZBTB7A HiBiT degradation assay; settings: HUDEP-2 ZBTB7A HiBiT cells, 24 hours treatment, luminescence; for DC50: read-out: ZBTB7A EC50
Description: (§1) The HiBiT degradation assay for WIZ and ZBTB7A in HUDEP-2 cells was performed as described below. HUDEP-2 cells engineered to express a HiBiT tag in either the WIZ (Widely interspaced zinc finger) or ZBTB7A (Zinc Finger And BTB Domain Containing 7A) proteins were maintained in low attachment flasks in StemSpan SFEM II media supplemented with Penicillin-Streptomycin (50 U/mL), rhSCF (50 ng/mL), rhEPO (3 IU/mL), dexamethasone (0.4 μg/mL) and doxycycline (1 μg/mL). Prior to start of the assay, cell count and viability were measured by trypan blue exclusion using the Vi-cell XR cell viability analyzer. For the HUDEP-2 WIZ HiBiT assay, cells were transferred to a 50 mL conical and centrifuged at 500 g for five minutes. Cells were resuspended in fresh StemSpan SFEM II media supplemented with Penicillin-Streptomycin (50 U/mL), rhSCF (50 ng/mL), rhEPO (3 IU/mL), dexamethasone (0.4 μg/mL) and doxycycline (1 μg/mL) at a density of 1.0×10^6 cells/ml. Forty microliters of cell suspension was dispensed into 384-well Low Flange White Flat Bottom Polystyrene TC-treated Microplates containing pre-dispensed compounds, using a VIAFLO 384 liquid hander, and placed in a 37° C. incubator with 5% CO2. […] After 24 hours of treatment, 40 μL Nano-Glo HiBiT Lytic Detection System reagent was dispensed into each well using a VIAFLO 384 liquid hander. Plates were incubated for 25 minutes at room temperature and the luminescence was read as relative luminescent units using the EnVision plate reader. EC50 and Y-min values were calculated using curves calculated from dotmatics software after the normalization to the DMSO control of 10 different concentrations: 10, 3.33, 1.11, 0.37, 0.12, 0.04 0.0137, 0.0046, 0.0015 and 0.0005 μM respectively.
For the HUDEP-2 ZBTB7A HiBiT assay, cell count and viability were measured by trypan blue exclusion using the Vi-cell XR cell viability analyzer and the cells were transferred to a 50 mL conical and centrifuged at 500 g for five minutes. Cells were resuspended in fresh IMDM media supplemented with L-Glutamine (1×), Penicillin-Streptomycin (50 U/mL), holo-transferrin (330 μg/mL), heparin (2 IU/mL), r-human Insulin (10 μg/mL), rhEPO (3 IU/mL), rhSCF (100 ng/mL)+Dox (1 μg/mL) and 5% human plasma in low attachment flasks, which were placed in a 37° C. incubator with 5% CO2. After 48 hours, cell count and viability were measured by trypan blue exclusion using the Vi-cell XR cell viability analyzer. The HUDEP-2 ZBTB7A cells were transferred to a 50 mL conical, centrifuged at 500 g for five minutes and resuspended at a density of 1.0×10^6 cells/ml in IMDM media supplemented with L-Glutamine (1×), Penicillin-Streptomycin (50 U/mL), holo-transferrin (330 μg/mL), heparin (2 IU/mL), r-human Insulin (10 μg/mL), rhEPO (3 IU/mL), rhSCF (100 ng/mL)+Dox (1 μg/mL) and 5% human plasma. Forty microliters of cell suspension was dispensed into 384-well Low Flange White Flat Bottom Polystyrene TC-treated Microplates containing pre-dispensed compounds, using a VIAFLO 384 liquid hander, and placed in a 37° C. incubator with 5% CO2. […] After 24 hours of treatment, 40 μL Nano-Glo HiBiT Lytic Detection System reagent was dispensed into each well using a VIAFLO 384 liquid hander. Plates were incubated for 25 minutes at room temperature and the luminescence was read as relative luminescent units using the EnVision plate reader. EC50 and Y-min values were calculated using curves calculated from dotmatics software after the normalization to the DMSO control of 10 different concentrations: 10, 3.33, 1.11, 0.37, 0.12, 0.04 0.0137, 0.0046, 0.0015 and 0.0005 μM respectively.

[2] = target: WIZ (Widely interspaced zinc finger) (Homo sapiens (Human), UniProt O95785+Q96SW2); assay: HUDEP-2 WIZ HiBiT degradation assay; settings: HUDEP-2 WIZ HiBiT cells, 24 hours treatment, luminescence; for DC50: read-out: WIZ EC50
Sequence of WIZ (Widely interspaced zinc finger) (O95785 whole entry): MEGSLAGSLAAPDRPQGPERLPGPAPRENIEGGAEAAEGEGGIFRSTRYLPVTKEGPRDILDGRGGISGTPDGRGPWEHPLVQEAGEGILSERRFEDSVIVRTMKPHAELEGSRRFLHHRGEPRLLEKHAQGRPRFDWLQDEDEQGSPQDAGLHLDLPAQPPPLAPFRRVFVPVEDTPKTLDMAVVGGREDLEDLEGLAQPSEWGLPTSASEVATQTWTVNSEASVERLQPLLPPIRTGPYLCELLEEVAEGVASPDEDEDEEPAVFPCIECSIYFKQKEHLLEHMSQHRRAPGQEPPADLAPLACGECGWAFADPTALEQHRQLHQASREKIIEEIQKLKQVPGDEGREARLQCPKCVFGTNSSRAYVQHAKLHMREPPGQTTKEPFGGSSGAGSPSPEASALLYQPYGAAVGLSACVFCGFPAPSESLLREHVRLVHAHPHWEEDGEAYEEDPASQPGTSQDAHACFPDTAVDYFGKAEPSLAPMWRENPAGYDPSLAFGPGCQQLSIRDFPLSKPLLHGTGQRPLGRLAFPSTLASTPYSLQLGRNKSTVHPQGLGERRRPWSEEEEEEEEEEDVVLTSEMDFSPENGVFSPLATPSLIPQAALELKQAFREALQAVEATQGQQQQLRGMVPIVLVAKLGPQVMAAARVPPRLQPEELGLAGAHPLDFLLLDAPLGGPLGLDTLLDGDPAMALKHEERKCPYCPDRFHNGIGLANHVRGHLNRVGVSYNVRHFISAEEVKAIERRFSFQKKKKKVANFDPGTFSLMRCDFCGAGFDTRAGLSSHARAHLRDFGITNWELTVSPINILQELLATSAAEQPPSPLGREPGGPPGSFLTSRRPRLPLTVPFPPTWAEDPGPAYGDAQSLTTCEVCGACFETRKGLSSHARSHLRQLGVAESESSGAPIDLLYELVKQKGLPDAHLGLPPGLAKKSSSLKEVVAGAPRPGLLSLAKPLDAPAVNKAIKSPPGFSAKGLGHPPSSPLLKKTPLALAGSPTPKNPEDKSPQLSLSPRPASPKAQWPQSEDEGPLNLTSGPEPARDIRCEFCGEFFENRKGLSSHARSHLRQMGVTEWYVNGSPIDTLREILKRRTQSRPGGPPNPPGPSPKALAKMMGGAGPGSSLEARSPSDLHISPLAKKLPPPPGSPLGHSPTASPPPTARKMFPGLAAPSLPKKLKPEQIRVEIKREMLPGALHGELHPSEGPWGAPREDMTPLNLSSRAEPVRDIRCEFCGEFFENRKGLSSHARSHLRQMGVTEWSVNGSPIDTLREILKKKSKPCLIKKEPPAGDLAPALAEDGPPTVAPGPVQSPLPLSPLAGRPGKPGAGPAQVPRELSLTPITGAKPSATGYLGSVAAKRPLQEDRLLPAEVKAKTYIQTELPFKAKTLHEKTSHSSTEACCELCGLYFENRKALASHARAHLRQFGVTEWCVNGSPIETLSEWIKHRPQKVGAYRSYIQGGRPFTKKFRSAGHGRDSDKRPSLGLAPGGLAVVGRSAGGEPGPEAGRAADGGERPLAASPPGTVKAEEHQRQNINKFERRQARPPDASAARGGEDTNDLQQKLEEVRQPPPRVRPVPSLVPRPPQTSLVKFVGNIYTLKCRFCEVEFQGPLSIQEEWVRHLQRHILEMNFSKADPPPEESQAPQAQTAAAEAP
Sequence of WIZ (Widely interspaced zinc finger) (Q96SW2 whole entry): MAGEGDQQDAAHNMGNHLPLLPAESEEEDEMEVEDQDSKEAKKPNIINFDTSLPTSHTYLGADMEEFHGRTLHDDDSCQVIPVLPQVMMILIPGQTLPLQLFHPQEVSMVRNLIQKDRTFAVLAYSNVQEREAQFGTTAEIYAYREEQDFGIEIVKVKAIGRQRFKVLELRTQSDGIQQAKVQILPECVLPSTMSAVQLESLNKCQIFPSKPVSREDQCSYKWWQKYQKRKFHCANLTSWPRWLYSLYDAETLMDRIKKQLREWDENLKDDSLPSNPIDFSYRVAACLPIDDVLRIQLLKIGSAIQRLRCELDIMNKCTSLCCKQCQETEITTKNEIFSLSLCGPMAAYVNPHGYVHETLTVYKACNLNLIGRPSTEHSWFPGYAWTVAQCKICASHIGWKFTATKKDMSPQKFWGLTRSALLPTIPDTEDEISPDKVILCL
Sequence of WIZ (Widely interspaced zinc finger) (Q16531 whole entry partner): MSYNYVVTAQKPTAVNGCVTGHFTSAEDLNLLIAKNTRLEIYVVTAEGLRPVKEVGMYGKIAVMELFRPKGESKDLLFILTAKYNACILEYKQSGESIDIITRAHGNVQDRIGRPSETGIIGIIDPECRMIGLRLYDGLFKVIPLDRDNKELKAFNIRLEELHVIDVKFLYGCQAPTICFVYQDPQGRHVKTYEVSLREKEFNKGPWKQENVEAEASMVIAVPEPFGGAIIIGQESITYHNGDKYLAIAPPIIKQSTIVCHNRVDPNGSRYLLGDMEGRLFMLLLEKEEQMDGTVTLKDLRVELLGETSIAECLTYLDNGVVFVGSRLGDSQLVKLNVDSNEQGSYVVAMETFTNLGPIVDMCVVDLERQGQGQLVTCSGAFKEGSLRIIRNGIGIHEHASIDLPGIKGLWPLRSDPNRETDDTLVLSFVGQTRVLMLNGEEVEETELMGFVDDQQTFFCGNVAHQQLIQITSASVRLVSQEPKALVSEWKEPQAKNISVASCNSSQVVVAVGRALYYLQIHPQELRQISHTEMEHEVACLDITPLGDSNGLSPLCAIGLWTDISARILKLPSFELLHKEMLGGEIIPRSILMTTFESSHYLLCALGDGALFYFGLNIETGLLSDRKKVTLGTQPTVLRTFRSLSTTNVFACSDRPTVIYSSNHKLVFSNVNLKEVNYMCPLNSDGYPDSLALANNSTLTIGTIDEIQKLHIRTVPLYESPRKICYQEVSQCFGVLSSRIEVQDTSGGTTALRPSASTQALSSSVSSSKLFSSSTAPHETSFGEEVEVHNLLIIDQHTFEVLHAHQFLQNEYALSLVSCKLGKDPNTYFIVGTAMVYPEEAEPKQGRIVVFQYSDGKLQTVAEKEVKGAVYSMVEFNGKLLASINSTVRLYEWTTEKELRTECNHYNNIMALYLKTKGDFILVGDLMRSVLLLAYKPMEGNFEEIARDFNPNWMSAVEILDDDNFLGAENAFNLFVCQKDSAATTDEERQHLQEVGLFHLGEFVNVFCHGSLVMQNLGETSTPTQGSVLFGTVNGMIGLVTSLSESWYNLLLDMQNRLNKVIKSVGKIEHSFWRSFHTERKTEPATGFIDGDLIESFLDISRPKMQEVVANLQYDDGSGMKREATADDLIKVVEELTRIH
Description: as §1

[3] = test system: fetal hemoglobin (HbF) in GCSF-mobilized human CD34+ cells; assay: HbF Induction Assay; settings: 168 h; compound 1 μM, 7 days, erythroid-differentiated human CD34+ cells, flow cytometry; DMSO baseline 15% HbF positive cells
Description: The expansion, differentiation, and maturation of GCSF-mobilized human CD34^+ (STEMCELL Technologies Inc.) cells towards erythroid lineage cells were performed using a two-phase liquid culture model (Moutouh-de Parseval L A, el al. Pomalidomide and lenalidomide regulate erythropoiesis and fetal hemoglobin production in human CD34+ cells. J Clin Invest. 2008 January; 118(1):248-58). In the first phase, GCSF-mobilized human CD34^+ cells were cultured using StemSpan™-XF (STEMCELL Technologies Inc.) media supplemented with 1×BIT 9500, Penicillin-Streptomycin (50 U/mL), 100 ng/mL recombinant human (rh) SCF, 100 ng/mL rh Flt3-L, 20 ng/mL rh IL-3 and 10 ng/mL rh EPO and the growth of cells maintained in exponential phase for 7 days at 37° C. with 5% CO2 to support expansion and progenitor differentiation prior the second phase and treatment with compounds. In the second phase, culture media was changed to StemSpan™-XF media supplemented with 1×BIT 9500, Penicillin-Streptomycin (50 U/mL), 50 ng/mL rh SCF and 40 ng/mL rh EPO to promote further differentiation and maturation of the erythrocytes and to initiate treatment with compounds. Compounds were dispensed in duplicate at a final concentration of 1 μM in a final DMSO amount of 0.1%. Fresh compound was reapplied, and cell density was kept constant every 2 days. After 7 days, the cells were assessed for viability and fetal hemoglobin expression using flow cytometry. For viability analysis, eBioscience™ Fixable Viability Dye eFluor™ 780 (1:1000, eBioscience; Cat #65-0865-14) was added to the cells and kept in the dark for 10 minutes. For analysis of fetal hemoglobin (HbF), cells were fixed and permeabilized using Fixation Buffer (BioLegend; Cat #420801 and Intracellular staining permeabilization buffer (BioLegend, Cat #420201) following manufacturer's instructions. During permeabilization step, cells were stained with PE-labelled Mouse Anti-Human Fetal Hemoglobin (1:10, clone 2D12; BD Biosciences, Cat #BDB560041) incubated at room temperature for 20 minutes and protected from light. PE-labelled Mouse anti-IgG k, (1:10 clone MOPC-21; BD Biosciences, Cat# BDB551436) was used as an isotype control.
Viability, cell count, and fetal hemoglobin (HbF) levels were measured using an Attune NXT flow cytometer (Thermofisher) and the data analyzed using the FCS express software (De Novo Software). In Table 1 below, the effects of compounds of formula (I), formula (I′), formula (II), formula (II′), and formula (III) on % viable cells, viable cell count, on the % HbF positive cells and the median fluorescent intensity (MFI) of the HbF positive cell population compared to the DMSO controls can be viewed. All gates were set using the isotype negative control. The baseline % HbF positive cells for DMSO-treated control cells was 15%. Compounds of formula (I), formula (I′), formula (II), formula (II′), and formula (III) having HbF induction between 66% and 100% are level A. Compounds of formula (I), formula (I′), formula (II), formula (II′), and formula (III) having HbF induction between 33% and 66% are level B. Compounds of formula (I), formula (I′), formula (II), formula (II′), and formula (III) having HbF induction % less than 33% are level C. For certain compounds of formula (I), formula (I′), formula (II), formula (II′), and formula (III) % HbF induction values 0-33% (activity level C), between 33% and 66% (activity level B), and between 67% and 100% (activity level A) are shown in Table 2 below.

Sequence of ZBTB7A (Zinc Finger And BTB Domain Containing 7A) (O95365 whole entry, the tested form may be a part): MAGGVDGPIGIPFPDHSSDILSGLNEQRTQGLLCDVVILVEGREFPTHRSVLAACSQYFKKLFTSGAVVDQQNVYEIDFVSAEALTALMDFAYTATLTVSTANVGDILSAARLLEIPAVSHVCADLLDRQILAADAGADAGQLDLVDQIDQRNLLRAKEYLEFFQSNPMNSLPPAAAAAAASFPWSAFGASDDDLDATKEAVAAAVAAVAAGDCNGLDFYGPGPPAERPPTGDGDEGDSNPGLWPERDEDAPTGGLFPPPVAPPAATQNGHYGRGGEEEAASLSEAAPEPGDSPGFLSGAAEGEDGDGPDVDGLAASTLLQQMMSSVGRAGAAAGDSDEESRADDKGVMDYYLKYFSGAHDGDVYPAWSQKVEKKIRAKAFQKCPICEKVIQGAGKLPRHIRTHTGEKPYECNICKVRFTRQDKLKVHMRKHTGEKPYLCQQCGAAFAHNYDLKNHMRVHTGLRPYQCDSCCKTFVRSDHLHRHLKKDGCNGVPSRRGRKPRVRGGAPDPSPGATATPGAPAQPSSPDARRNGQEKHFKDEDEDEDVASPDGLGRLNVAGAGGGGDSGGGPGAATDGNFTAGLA
Sequence of ZBTB7A (Zinc Finger And BTB Domain Containing 7A) (Q96SW2 whole entry, the tested form may be a part): as the sequence (Q96SW2 whole entry) above
Sequence of ZBTB7A (Zinc Finger And BTB Domain Containing 7A) (Q16531 whole entry partner, the tested form may be a part): as the sequence (Q16531 whole entry partner) above

Compound `Cc1cc(-c2cc3nc(C)n(C)c3cc2Nc2cccc3c2C(=O)N(C2CCC(=O)NC2=O)C3=O)ccn1` (stereo not shown) [Compound 1, 4-((1,2-dimethyl-5-(2-methylpyridin-4-yl)-1H-benzo[d]imidazol-6-yl)amino)-2-(2,6-dioxopiperidin-3-yl)isoindoline-1,3-dione] has a DC50 [1] of under 30 nM, a DC50 [2] of 10 to 100 nM and an activation at 1 µM [3] of 66 to 100%.

In the case of `Cc1cc2c(cc1Nc1cccc3c1C(=O)N(C1CCC(=O)NC1=O)C3=O)N(C)C(=O)CC2` (stereo not shown) [Compound 33, 4-((1,6-dimethyl-2-oxo-1,2,3,4-tetrahydroquinolin-7-yl)amino)-2-(2,6-dioxopiperidin-3-yl)isoindoline-1,3-dione], the DC50 [1] is reported as 30 to 100 nM and the DC50 [2] is reported as 10 to 100 nM.

`CN1C(=O)CCc2cc(C3CC3)c(Nc3cccc4c3C(=O)N(C3CCC(=O)NC3=O)C4=O)cc21` (stereo not shown) [Compound 34, 4-((6-cyclopropyl-1-methyl-2-oxo-1,2,3,4-tetrahydroquinolin-7-yl)amino)-2-(2,6-dioxopiperidin-3-yl)isoindoline-1,3-dione] was tested, and the EC50 [1] was under 30 nM and the DC50 [2] was 10 to 100 nM.

For `Cc1cc(-c2cc3c(cc2Nc2cccc4c2C(=O)N([C@H]2CCC(=O)NC2=O)C4=O)N(C)C(=O)CC3)cn(C)c1=O` [Compound 35, (S)-4-((6-(1,5-dimethyl-6-oxo-1,6-dihydropyridin-3-yl)-1-methyl-2-oxo-1,2,3,4-tetrahydroquinolin-7-yl)amino)-2-(2,6-dioxopiperidin-3-yl)isoindoline-1,3-dione], the DC50 [1] was 30 to 100 nM and the DC50 [2] was 10 to 100 nM.

Compound `CN1C(=O)CCc2cc(-c3cnn(C)c3)c(Nc3cccc4c3C(=O)N(C3CCC(=O)NC3=O)C4=O)cc21` (stereo not shown) [Compound 36, 2-(2,6-dioxopiperidin-3-yl)-4-((1-methyl-6-(1-methyl-1H-pyrazol-4-yl)-2-oxo-1,2,3,4-tetrahydroquinolin-7-yl)amino)isoindoline-1,3-dione] has an EC50 [1] of under 30 nM and a DC50 [2] of 10 to 100 nM.

With `CN1C(=O)CCc2cc(-c3cnn(C4CC4)c3)c(Nc3cccc4c3C(=O)N([C@H]3CCC(=O)NC3=O)C4=O)cc21` [Compound 37, (S)-4-((6-(1-cyclopropyl-1H-pyrazol-4-yl)-1-methyl-2-oxo-1,2,3,4-tetrahydroquinolin-7-yl)amino)-2-(2,6-dioxopiperidin-3-yl)isoindoline-1,3-dione] the EC50 [1] was under 30 nM and the EC50 [2] was under 10 nM.

In the case of `Cc1nn(C)cc1-c1cc2c(cc1Nc1cccc3c1C(=O)N([C@H]1CCC(=O)NC1=O)C3=O)N(C)C(=O)CC2` [Compound 38, (S)-4-((6-(1,3-dimethyl-1H-pyrazol-4-yl)-1-methyl-2-oxo-1,2,3,4-tetrahydroquinolin-7-yl)amino)-2-(2,6-dioxopiperidin-3-yl)isoindoline-1,3-dione], the EC50 [1] is reported as under 30 nM and the DC50 [2] is reported as 10 to 100 nM.

`COc1cc(-c2cc3c(cc2Nc2cccc4c2C(=O)N([C@H]2CCC(=O)NC2=O)C4=O)N(C)C(=O)CC3)cc(C)n1` [Compound 49, (S)-2-(2,6-dioxopiperidin-3-yl)-4-((6-(2-methoxy-6-methylpyridin-4-yl)-1-methyl-2-oxo-1,2,3,4-tetrahydroquinolin-7-yl)amino)isoindoline-1,3-dione] gave an EC50 [1] of under 30 nM and an EC50 [2] of under 10 nM.

Compound `COc1nccc(-c2cc3c(cc2Nc2cccc4c2C(=O)N(C2CCC(=O)NC2=O)C4=O)N(C)C(=O)CC3)c1F` (stereo not shown) [Compound 50, 2-(2,6-dioxopiperidin-3-yl)-4-((6-(3-fluoro-2-methoxypyridin-4-yl)-1-methyl-2-oxo-1,2,3,4-tetrahydroquinolin-7-yl)amino)isoindoline-1,3-dione] has an EC50 [1] of under 30 nM and a DC50 [2] of 10 to 100 nM.

Compound `COc1cc(-c2cc3c(cc2Nc2cccc4c2C(=O)N(C2CCC(=O)NC2=O)C4=O)N(C)C(=O)CC3)c(F)cn1` (stereo not shown) [Compound 51, 2-(2,6-dioxopiperidin-3-yl)-4-((6-(5-fluoro-2-methoxypyridin-4-yl)-1-methyl-2-oxo-1,2,3,4-tetrahydroquinolin-7-yl)amino)isoindoline-1,3-dione] has a DC50 [1] of 30 to 100 nM and a DC50 [2] of 10 to 100 nM.

Compound `Cc1cc(-c2cc3c(cc2Nc2cccc4c2C(=O)N([C@]2(C)CCC(=O)NC2=O)C4=O)N(C)C(=O)CC3)ccn1` [Compound 53, (R)-2-(3-methyl-2,6-dioxopiperidin-3-yl)-4-((1-methyl-6-(2-methylpyridin-4-yl)-2-oxo-1,2,3,4-tetrahydroquinolin-7-yl)amino)isoindoline-1,3-dione] has an EC50 [1] of over 100 nM and a DC50 [2] of over 100 nM.

`CC1(N2C(=O)c3cccc(Nc4cccc(COc5ccccc5)c4)c3C2=O)CCC(=O)NC1=O` (stereo not shown) [Compound 54, 2-(3-methyl-2,6-dioxopiperidin-3-yl)-4-((3-(phenoxymethyl)phenyl)amino)isoindoline-1,3-dione] gave an EC50 [1] of over 100 nM and a DC50 [2] of over 100 nM.
